Here are results for 6 compounds from patent US6849598B1, “Therapeutic compositions comprising bactericidal/permeability-increasing (BPI) protein products” (XOMA, priority 1995, dated 2005).

This experiment relates to P. aeruginosa (ATCC 19660). Description: Antibiotic susceptibility (MIC, Microscan® MIC Plus Type 2 panel) with rBPI21/P123 and EDTA. The experiment is classed as cell-based. Also on record: key to susceptibility interpretation of MIC (superscript): R: resistant; I: intermediate; S: susceptible. The note with it: for effect of EDTA added to the rBPI21/P123 formulation on susceptibility of the strain to the antibiotic: summary of Table 17. On the procedure:
In additional experiments, a BPI protein product, rBPI21, was formulated with an anti-bacterial activity enhancing poloxamer, specifically PLURONIC P123, and with various concentrations of EDTA, and was evaluated for its effect on the antibiotic susceptibility of a Pseudomonas aeruginosa (ATCC 19660). Antibiotic susceptibility was determined using Microscan® panel plates (Dade Microscan, West Sacramento, Calif.) that allow simultaneous determination of minimum inhibitory concentrations for a number of different antibiotics.
The antimicrobial susceptibility tests performed on the Microscan® panel plates are miniaturizations of the broth dilution susceptibility test. Antimicrobial agents are serially diluted in Mueller-Hinton broth (supplemented with calcium and magnesium, or with sodium chloride for oxacillin, or with thymidine phosphorylase for trimethoprim, sulfamethoxazole and trimethoprim/ sulfamethoxazole) to concentrations bridging the range of clinical interest. One well on the 96-well Microscan® plate is a growth control well that contains dehydrated broth only. The remaining wells contain dehydrated broth and antibiotic (or broth and biochemical reagent indicator), which is rehydrated to the desired concentration by inoculation of a standardized suspension of test organism. The chromogenic biochemical agent indicators are used to identify and characterize the species of bacteria based on detection of pH changes and substrate utilization. […] Gram-negative and gram positive organisms may be tested using any of the Microscan® panel plates (Microscan®, Dade Microscan, West Sacramento, Calif.). In these experiments with P. aeruginosa, the MIC Plus Type 2 panel plates were used. The concentrations of antibiotics tested in this panel plate are shown below in Table 16. The antibiotic susceptibility standards (interpretation of an MIC as resistant, intermediate or susceptible according to Microscan®'s NCCLS-derived standards) applicable to the gram-negative organisms that may be tested in each panel plate appear below in Table 16A.
For these experiments with P. aeruginosa, the following procedure was performed: The organism was streaked onto TSA plates (Remel, Lenexa, Kans.) and incubated for 18-24 hours overnight. Well-isolated A, colonies from the plates were emulsified in 3 ml of sterile Inoculum Water d(catalog no. B1015-2, MicrosScan® system, Dade Microscan, West Sacramento, Calif.) to a final turbidity equivalent to 0.5 McFarland Barium Sulfate standard. This cell suspension was vortexed for 2 to 3 seconds and 100 μl was transferred to glass tubes containing 25 ml of Inoculum Water with Pluronic-D (catalog no. B1015-7, MicroScan® system, Dade Microscan, West Sacramento, Calif.) (hereinafter “Pluronic Inoculum Water”), or 25 ml of Pluronic Inoculum Water into which rBPI21 in 0.2% PLURONIC P123, 0.002% TWEEN 80, 5mM sodium citrate, 150 mM NaCl (“rBPI21/P123”) had been diluted to 64 μg/ml rBPI21.
The 25 ml of this inoculum containing rBPI21 was mixed by inversion and poured into a tray. The inoculum was drawn up into a manual 96-well pipetting system (RENOK^− rehydrator-inoculator system, Dade Microscan, West Sacramento, Calif.) designed for use with the Microscan® panel plates, and 110 μl of the inoculum was delivered to each well of a Microscan® MIC Plus Type 2 panel plate. When added to the wells, this inoculum achieves a final bacterial concentration of 4×10^5 to 7×10^5 CFU/ml. The panel plates were then incubated at 35° C. for 15-24 hours and read visually for cell growth.
No growth was defined as a slight whiteness in the well or a clear broth. Growth appeared as turbidity which could take the form of a white haze throughout the well, a white button in the center of the well, or a fine granule growth throughout the well. All wells were read against a black indirectly lighted background. Visual results of the biochemical reactions were read into a database for bacterial identification.

Where [1] appears, read: rBPI21/P123 at 64 μg/ml rBPI21, With 0% EDTA.
Where [2] appears, read: rBPI21/P123 at 64 μg/ml rBPI21, With 0.01% EDTA.
The mark [3] stands for this setting: rBPI21/P123 at 64 μg/ml rBPI21, With 0.05% EDTA.
[4] abbreviates: rBPI21/P123 at 64 μg/ml rBPI21, With 0.1% EDTA.

For `CO[C@@]1(NC(=O)C2SC(=C(C(N)=O)C(=O)O)S2)C(=O)N2C(C(=O)O)=C(CSc3nnnn3C)CS[C@@H]21` (some centres unmarked) [Cefotetan], the “Minimum Inhibitory Concentration of Antibiotic” value (from here on “Minimum Inhibitory Concentration”) (Control (No BPI21)) is more than 32 µg/mL; the “Minimum Inhibitory Concentration” value under setting [1] is more than 32 µg/mL; the “Minimum Inhibitory Concentration” value under setting [2] is less than 4 µg/mL; the “Minimum Inhibitory Concentration” value under setting [3] was less than 4 µg/mL; the “Minimum Inhibitory Concentration” value under setting [4] is less than 4 µg/mL. In addition, the “susceptibility interpretation of MIC (superscript)” value (“susceptibility interpretation” below) runs as follows: (Control (No BPI21)) “R”; under setting [1], “R”; under setting [2], “S”; under setting [3], “S”; under setting [4], “S”.
With “Amoxicillin/K Clavulanate [Amox/K Clavulanate]”, the “effect of EDTA added to the rBPI21/P123 formulation on susceptibility of the strain to the antibiotic” value is on record as “reversing resistance”. Also, for the setting “Control (No BPI21)”, the “Minimum Inhibitory Concentration” value is more than 32 µg/mL and the “susceptibility interpretation” value is on record as “R”. Further, under setting [1], the “Minimum Inhibitory Concentration” value was more than 32 µg/mL and the “susceptibility interpretation” value is on record as “R”. Also, under setting [2], the “Minimum Inhibitory Concentration” value is less than 1 µg/mL and the “susceptibility interpretation” value was “S”. Under setting [3], the “Minimum Inhibitory Concentration” value was determined as 32 µg/mL and the “susceptibility interpretation” value is listed as “R”. For the same compound, under setting [4], the “Minimum Inhibitory Concentration” value was less than 1 µg/mL and the “susceptibility interpretation” value was “S”.
Regarding `Cn1nnnc1SCC1=C(C(=O)O)N2C(=O)[C@@H](NC(=O)[C@H](O)c3ccccc3)[C@H]2SC1` [Cefamandole], the “effect of EDTA added to the rBPI21/P123 formulation on susceptibility of the strain to the antibiotic” value is recorded as “reversing resistance”. Further, under “Control (No BPI21)”, the “Minimum Inhibitory Concentration” value is more than 32 µg/mL and the “susceptibility interpretation” value was “R”. For the same compound, under setting [1], the “Minimum Inhibitory Concentration” value is more than 32 µg/mL and the “susceptibility interpretation” value was “R”. For the same compound, under setting [2], the “Minimum Inhibitory Concentration” value was more than 32 µg/mL and the “susceptibility interpretation” value was “R”. Moreover, under setting [3], the “Minimum Inhibitory Concentration” value is more than 32 µg/mL and the “susceptibility interpretation” value is given as “R”. Also, under setting [4], the “Minimum Inhibitory Concentration” value was less than 4 µg/mL and the “susceptibility interpretation” value is given as “S”.
As for `CCN1CCN(C(=O)N[C@@H](C(=O)N[C@@H]2C(=O)N3C(C(=O)O)=C(CSc4nnnn4C)CS[C@H]23)c2ccc(O)cc2)C(=O)C1=O` [Cefoperazone], the “Minimum Inhibitory Concentration” value was less than 4 µg/mL (Control (No BPI21)); less than 4 µg/mL under setting [1]; less than 4 µg/mL under setting [2]; less than 4 µg/mL under setting [3]; less than 4 µg/mL under setting [4]. Also, the “susceptibility interpretation” value reads like this: (Control (No BPI21)) “S”; under setting [1], “S”; under setting [2], “S”; under setting [3], “S”; under setting [4], “S”.
Take `CC1(C)S[C@@H]2[C@H](NC(=O)C(C(=O)O)c3ccccc3)C(=O)N2[C@H]1C(=O)O` (some centres unmarked) [Carbenicillin]: the “Minimum Inhibitory Concentration” value (Control (No BPI21)) was 32 µg/mL; the “Minimum Inhibitory Concentration” value under setting [1] is less than 16 µg/mL; the “Minimum Inhibitory Concentration” value under setting [2] is less than 16 µg/mL; the “Minimum Inhibitory Concentration” value under setting [3] was less than 16 µg/mL; the “Minimum Inhibitory Concentration” value under setting [4] is less than 16 µg/mL. Also, the “susceptibility interpretation” value (Control (No BPI21)) was “I”; the “susceptibility interpretation” value under setting [1] is “S”; the “susceptibility interpretation” value under setting [2] was “S”; the “susceptibility interpretation” value under setting [3] is recorded as “S”; the “susceptibility interpretation” value under setting [4] was “S”.
On to “Ticarcillin/K Clavulanate [Ticar/K Clavulanate]”, for which the “Minimum Inhibitory Concentration” value runs as follows: (Control (No BPI21)) less than 16 µg/mL; under setting [1], less than 16 µg/mL; under setting [2], less than 16 µg/mL; under setting [3], less than 16 µg/mL; under setting [4], less than 16 µg/mL. Further, the “susceptibility interpretation” value is recorded as “S” (Control (No BPI21)); “S” under setting [1]; “S” under setting [2]; “S” under setting [3]; “S” under setting [4].
